Source: patent US11161860B2, “Compound having effects of inhibiting phosphodiesterase 4, preparation method thereof and pharmaceutical use thereof” (Hefei Industrial Pharmaceutical Institute Co., Ltd., priority 2018, dated 2021)
Marks after values point to notes of the source that are not given here. Blank lines part the entries; values can stand above or below the molecule they belong to.

Legend:
[1] = test system: DNCB-induced atopic dermatitis mice; assay: DNCB-induced dermatitis mouse model, skin thickness; format: in vivo, female BALB/C mice; details: for reduction of the thickness of the dermis compared with Crisaborole / reduction of the thickness of the epidermis compared with Crisaborole: statistical comparison vs Crisaborole group; for Epidermal thickness / Dermis thickness: 50 mg/mL, 100 μL applied to back skin, 11 times once a day, Mean ± SD, n = 8; for Epidermal thickness: model 137.76, blank 48.93; for Dermis thickness: model 500.71, blank 194.70
Experimental: After female BALB/C mice are selected, each weighing 18-22 g, for animal adaptive breeding for 7 days, these are randomly divided into a blank group, a model group, a positive drug Crisaborole group, a hexadecadrol group, and compound groups, with 8 in each group. Except for the mice in the blank group, the remaining mice are applied with 100 μL of a 1% DNCB solution [acetone: olive oil=4:1 (V/V)] on the skin of the back of the shaved mice, and applied continuously for 3 days once a day. Then, dosing treatment starts 4 days after the mice are housed, and the test drug is applied to the back of each group of animals, wherein animals in the blank group and the model group are applied with a corresponding solvent, the positive drug Crisaborole group and hexadecadrol group are applied with 50 mg/mL of a corresponding drug, and the administration group is applied with 50 mg/mL of a corresponding compound, with 100 μL for each mouse; after application of 4 hours, 0.5% DNCB solution is applied for secondary challenge, and repeated administration and challenge treatment are performed 11 times, once a day. 24 hours after the last administration, the animals are sacrificed, and the back skins (1×0.4 cm^2) are taken and fixed in 10% formalin buffer to make pathological sections and perform HE staining; then, the epidermal and dermal layers are observed under a 100× […], and 5 areas are selected for detection of and recording the skin thickness, and then the average value is taken to represent the final thicknesses of the epidermal layer and dermal layer, respectively.

PDE4A enzyme = target: T1, PDE4A enzyme (Homo sapiens, UniProt P27815); assay: Inhibition of the activity of PDE4A enzyme (fluorescence polarization, Transcreener AMP2/GMP2); format: biochemical; details: 1 h, mean ± spread; for remaining activity at 0.01 µM: 0.01 μM compound; for remaining activity at 0.1 µM: 0.1 μM compound; for remaining activity at 1 µM: 1 μM compound
T1 construct: GST (N); host or cells: Sf9 insect cells (baculovirus)
T1 sequence (P27815 whole entry, species assumed): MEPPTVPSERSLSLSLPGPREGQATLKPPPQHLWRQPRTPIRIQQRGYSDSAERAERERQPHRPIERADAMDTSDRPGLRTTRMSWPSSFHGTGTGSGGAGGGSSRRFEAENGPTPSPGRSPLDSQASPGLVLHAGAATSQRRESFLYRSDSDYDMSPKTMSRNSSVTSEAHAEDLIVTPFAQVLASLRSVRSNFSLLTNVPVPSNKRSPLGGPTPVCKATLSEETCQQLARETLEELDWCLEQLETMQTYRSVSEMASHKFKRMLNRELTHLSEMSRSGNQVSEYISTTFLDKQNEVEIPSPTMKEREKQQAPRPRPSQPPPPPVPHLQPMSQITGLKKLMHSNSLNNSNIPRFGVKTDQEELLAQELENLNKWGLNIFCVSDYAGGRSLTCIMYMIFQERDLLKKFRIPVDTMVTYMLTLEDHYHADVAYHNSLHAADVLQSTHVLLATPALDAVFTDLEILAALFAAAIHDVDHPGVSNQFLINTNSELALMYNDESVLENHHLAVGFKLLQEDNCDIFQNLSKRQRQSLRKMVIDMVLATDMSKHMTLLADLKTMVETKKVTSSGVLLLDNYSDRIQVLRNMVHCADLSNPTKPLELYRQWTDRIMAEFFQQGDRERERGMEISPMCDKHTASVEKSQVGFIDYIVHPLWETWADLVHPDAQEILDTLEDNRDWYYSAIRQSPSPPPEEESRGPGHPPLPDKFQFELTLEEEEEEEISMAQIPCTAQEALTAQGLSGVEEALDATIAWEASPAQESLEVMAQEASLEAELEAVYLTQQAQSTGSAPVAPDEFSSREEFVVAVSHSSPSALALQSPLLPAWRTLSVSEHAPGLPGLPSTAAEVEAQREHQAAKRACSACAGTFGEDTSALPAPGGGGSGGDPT
Experimental: The PDE4A enzyme expressed from baculovirus is labeled with N-terminal GST from Sf9 insect cells. A specified PDE4A enzyme and 1 mM cAMP are added to the newly prepared pH 7.5 Tris buffer, the enzyme solution is transferred into reaction wells, and the compound is sonicated in DMSO and then added to the enzyme solution for culturing for 10 minutes at room temperature; the substrate solution is poured into the reaction wells to initiate the reaction and cultured at room temperature for 1 hour, and a detection tracer (AMP2/GMP2 AlexaFluor 633 Tracer) and an antibody (Transcreener® AMP2/GMP2 Antibody) are added to stop the reaction for culturing for 90 minutes with gentle mixing. […]

[2] = 50 mg/mL topical, statistical comparison vs Y5 group

SMILES: OB1OCc2cc(Oc3cc(F)c4cc(C(F)(F)F)ccc4n3)ccc21 [PD-21]
reduction of the thickness of the dermis compared with Crisaborole ([1]; 50 mg/mL topical): significantly reduce the thickness of the dermis of dermatitis mice (P≤0.01)
reduction of the thickness of the epidermis compared with Crisaborole ([1]; 50 mg/mL topical): significantly reduce the thickness of the epidermis (P≤0.01)
reduction of the thickness of the dermis compared with the compound Y5 [1, 2]: significantly reduce the thickness of the dermis of dermatitis mice (P≤0.05)
reduction of the thickness of the epidermis compared with the compound Y5 [1, 2]: significantly reduce the thickness of the epidermis (P≤0.01)
Epidermal thickness [1]: 70.62 ± 7.12 ^aa μm
Dermis thickness [1]: 383.34 ± 24.40**^##a μm
remaining activity at 0.01 µM (PDE4A enzyme): 1.64 ± 0.55%
remaining activity at 0.1 µM (PDE4A enzyme): 0.33 ± 0.23%
remaining activity at 1 µM (PDE4A enzyme): 0.28 ± 0.14%

SMILES: N#Cc1ccc2nc(Oc3ccc4c(c3)COB4O)cc(F)c2c1 [PD-22]
Epidermal thickness [1]: 103.45 ± 11.74 μm
Dermis thickness [1]: 447.77 ± 33.37 μm
remaining activity at 0.01 µM (PDE4A enzyme): 7.16 ± 1.04%
remaining activity at 0.1 µM (PDE4A enzyme): 3.06 ± 0.27%
remaining activity at 1 µM (PDE4A enzyme): 1.78 ± 0.63%

SMILES: OB1OCc2cc(Oc3ccc4cc(C(F)(F)F)ccc4c3)ccc21 [PD-23]
Epidermal thickness [1]: 97.34 ± 8.36 μm
Dermis thickness [1]: 435.56 ± 27.08 μm
remaining activity at 0.01 µM (PDE4A enzyme): 9.26 ± 0.73%
remaining activity at 0.1 µM (PDE4A enzyme): 4.51 ± 0.94%
remaining activity at 1 µM (PDE4A enzyme): 2.45 ± 0.76%

SMILES: COC(=O)c1cccc2cc(Oc3ccc4c(c3)COB4O)ccc12 [PD-24]
reduction of the thickness of the dermis compared with Crisaborole ([1]; 50 mg/mL topical): significantly reduce the thickness of the dermis of dermatitis mice (P≤0.05)
reduction of the thickness of the epidermis compared with Crisaborole ([1]; 50 mg/mL topical): significantly reduce the thickness of the epidermis of the dermatitis mice (P≤0.05)
Epidermal thickness [1]: 91.17 ± 9.03 μm
Dermis thickness [1]: 420.33 ± 24.75 μm
remaining activity at 0.01 µM (PDE4A enzyme): 9.17 ± 1%
remaining activity at 0.1 µM (PDE4A enzyme): 7.31 ± 1.16%
remaining activity at 1 µM (PDE4A enzyme): 2.64 ± 0.56%

Continued, in another order:

remaining activity at 0.01 µM (PDE4A enzyme): 7.17 ± 0.64%
remaining activity at 0.1 µM (PDE4A enzyme): 1.95 ± 1.18%
remaining activity at 1 µM (PDE4A enzyme): 2.27 ± 0.74%
SMILES: N#Cc1ccc2cc(Oc3ccc4c(c3)COB4O)ccc2c1 [PD-25]
reduction of the thickness of the dermis compared with Crisaborole ([1]; 50 mg/mL topical): significantly reduce the thickness of the dermis of dermatitis mice (P≤0.05)
reduction of the thickness of the epidermis compared with Crisaborole ([1]; 50 mg/mL topical): significantly reduce the thickness of the epidermis of the dermatitis mice (P≤0.05)
Epidermal thickness [1]: 87.77 ± 10.58 μm
Dermis thickness [1]: 412.42 ± 26.74 μm

remaining activity at 0.01 µM (PDE4A enzyme): 12.8 ± 1.82%
remaining activity at 0.1 µM (PDE4A enzyme): 7.23 ± 1.83%
remaining activity at 1 µM (PDE4A enzyme): 2.04 ± 0.24%
SMILES: N#Cc1ccc2nc(Cl)cc(Oc3ccc4c(c3)COB4O)c2c1 [PD-26]
reduction of the thickness of the dermis compared with Crisaborole ([1]; 50 mg/mL topical): significantly reduce the thickness of the dermis of dermatitis mice (P≤0.01)
reduction of the thickness of the epidermis compared with Crisaborole ([1]; 50 mg/mL topical): significantly reduce the thickness of the epidermis of the dermatitis mice (P≤0.05)
Epidermal thickness [1]: 83.94 ± 7.63 μm
Dermis thickness [1]: 408.97 ± 23.06 μm

remaining activity at 0.01 µM (PDE4A enzyme): 12.9 ± 1.86%
remaining activity at 0.1 µM (PDE4A enzyme): 9.49 ± 1.59%
remaining activity at 1 µM (PDE4A enzyme): 2.69 ± 1.77%
SMILES: COC(=O)c1ccc2nc(Cl)cc(Oc3ccc4c(c3)COB4O)c2c1 [PD-27]
Epidermal thickness [1]: 97.73 ± 8.95 μm
Dermis thickness [1]: 430.05 ± 27.90 μm

remaining activity at 0.01 µM (PDE4A enzyme): 9.14 ± 0.89%
remaining activity at 0.1 µM (PDE4A enzyme): 4.42 ± 0.64%
remaining activity at 1 µM (PDE4A enzyme): 2.1 ± 0.93%
SMILES: OB1OCc2cc(Oc3cc(Cl)nc4ccc(C(F)(F)F)cc34)ccc21 [PD-28]
Epidermal thickness [1]: 70.51 ± 12.45 μm
Dermis thickness [1]: 352.69 ± 30.77**^aa μm
